These compounds were tested on hepatitis virus B (HBV) infection (assay: HepG2 NTCP assay (HBcAg staining as marker of HBV infection)). Conditions: HepG2-NTCP cells infected with HBV, HBV core antigen (HBcAg) as marker of infection.
Type: cell-based
Excerpt: The principle of the hepG2-NTCP assay is to measure the effect of a test compound on the inhibition of the hepatitis virus B (HBV) infection compared to a reference compound. To be able to infect the hepatocellular carcinoma cells (HepG2) with HBV, HepG2 cells were stably transfected with the Na+-taurocholate co-transporting polypeptide (NTCP) receptor, also referred to as Sodium/bile acid cotransporter (SLC10A1), which is necessary for HBV infection. In this assay the HBV core antigen (HBcAg) is used as a marker of HBV infection. Nuclei count is used as an indication for compound toxicity.
On day one, HepG2-NTCP cells ((Ni et al., 2014)) are seeded at 5000 cells in 50 µL per well in assay medium (DMEM high glucose supplemented with 10% non-heat inactivated (non HI) fetal bovine serum (FBS), 1% P/S, 1% L-glutamine and 1% MEM NEAA) in 384 well plate and incubated at 37°C, 5% CO2 overnight.
Compounds are prepared as 10 point serial dilutions using 1/3 dilution steps in 100% DMSO starting from 10 mM highest concentration, unless otherwise requested for very potent compounds, which started from 5mM or 1mM stock. Compounds are further diluted 1/500 in assay medium.
A negative control (vehicle: 24 wells with 0.2% DMSO) and positive control (24 wells with 100nM Myrcludex B (Cas no.: 406461-66-3), 0.2% DMSO and in 10 point DR) are included in the experiments.
On the second day, 40µl medium is removed from the cells with the plate washer (Select 405 microplate washer, Biotek). 15 µL of diluted compound series is transferred to the assay plate and cells are infected with 15 µL of HBV mix (HBV virus, 4%PEG, 1%DMSO in assay medium). The infection is performed in assay medium containing final concentration of 1% DMSO. The assay plate is incubated at 37°C, 5% CO2 overnight.
The next day, 30µl compound and HBV mix are removed from the assay plate with the plate washer and 30 µL of compound series diluted 1/500 in assay medium containing final concentration of 2.5% DMSO is added to the cell assay plate. The assay plate is incubated at 37°C, 5% CO2 for 5 days.
After 5 days of incubation, supernatant is removed from the cells with the plate washer. Cells are fixed with 50 µL of 3.7% formaldehyde added with the Well mate (Matrix technologies) and incubated for 30 min at room temperature. After fixation, cells are washed four times with phosphate buffer saline (1xPBS, 137mM NaCl, 10mM na2HPO4, 2.7mM KCl, 1.8mM KH2PO4 at pH7.4). The cells are finally subjected to HBc staining.
First, the assay plate is blocked with blocking buffer (2%FBS, 3% BSA, 0.2% TritonX100 in PBS) for 1 h at room temperature (optional to block overnight at 4°C).
After 4 washes of PBST (1XPBS + 0.05% Tween) with the plate washer, the assay plate is incubated with 30 µL diluted primary antibody (1/700 Rabbit anti-HBV core antigen, Dako, B0586 or 1/350 Rabbit anti HBV core antigen, Invitrogen, PA516368) in blocking buffer and incubated for 90 min at room temperature.
After 4 washes of PBST with the plate washer, the assay plate is incubated with 50 µL of secondary antibody (Donkey-anti-rabbit Alexa 488 antibody, Lifetechnologies A21206) 1/500 diluted in blocking buffer and incubated for 60 min at room temperature and in the dark.
The assay plate is washed 4 times with PBST on the plate washer and incubated with 50µL of DAPI (Sigma D9542, stock 5mg/mL) 1/10000 diluted in PBS for 15-30 min at room temperature and in the dark. The assay plate is now ready for read out on the InCell Analyzer 2200 (GE Healthcare).
Raw data are generated following read-out performed on InCell 2200 and are imported into the galapagos LIMS for automated calculation of percentage inhibition (PIN) and toxicity by nuclei count, using the control wells mentioned above, and creation of Dose Response curves. Table V. Hepg2 NTCP assay activity of illustrative compounds of the invention

Compound	IC50 [nM]
CC(C)C1Oc2cc(OCC3COC3)c(Cl)cc2-c2c1cc(C(=O)O)c(=O)n2C1CC1 (stereo not drawn) [Compound 5, 9-chloro-1-cyclopropyl-5-isopropyl-8-(oxetan-3-ylmethoxy)-2-oxo-5H-chromeno[4,3-b]pyridine-3-carboxylic acid]	0.001 to 1
CC(C)C1Oc2cc(OCC3COCCO3)c(Cl)cc2-c2c1cc(C(=O)O)c(=O)n2C1CC1 (stereo not drawn) [Compound 7, 9-chloro-1-cyclopropyl-8-(1,4-dioxan-2-ylmethoxy)-5-isopropyl-2-oxo-5H-chromeno[4,3-b]pyridine-3-carboxylic acid]	0.001 to 1
COCCCOc1ccc2c(c1Cl)OC(C(C)C)c1cc(C(=O)O)c(=O)n(C3CC3)c1-2 (stereo not drawn) [Compound 8, 7-chloro-1-cyclopropyl-5-isopropyl-8-(3-methoxypropoxy) -2-oxo-5H-chromeno[4,3-b]pyridine-3-carboxylic acid]	1 to 20
COc1cc2c(cc1OC)-c1c(cc(C(=O)O)c(=O)n1C1CC1)C(C(C)(C)C)O2 (stereo not drawn) [Compound 9, 5-tert-butyl-1-cyclopropyl-8,9-dimethoxy-2-oxo-5H-chromeno[4,3-b]pyridine-3-carboxylic acid]	1 to 20
COCCCOc1cc2c(cc1OC)-c1c(cc(C(=O)O)c(=O)n1C1CC1)C(C(C)C)O2 (stereo not drawn) [Compound 10, 1-cyclopropyl-5-isopropyl-9-methoxy-8-(3-methoxypropoxy) -2-oxo-5H-chromeno[4,3-b]pyridine-3-carboxylic acid]	1 to 20
CCC1Oc2cc(OCCCOC)c(Cl)cc2-c2c1cc(C(=O)O)c(=O)n2C1CC1 (stereo not drawn) [Compound 11, 9-chloro-1-cyclopropyl-5-ethyl-8-(3-methoxypropoxy) -2-oxo-5H-chromeno[4,3-b]pyridine-3-carboxylic acid]	0.001 to 1
CCC1Oc2cc(OCCCOC)c(OC)cc2-c2c1cc(C(=O)O)c(=O)n2C1CC1 (stereo not drawn) [Compound 12, 1-cyclopropyl-5-ethyl-9-methoxy-8-(3-methoxypropoxy) -2-oxo-5H-chromeno[4,3-b]pyridine-3-carboxylic acid]	1 to 20
COCCCOc1cc2c(cc1Cl)-c1c(cc(C(=O)O)c(=O)n1C1CC1)C(C1COC1)O2 (stereo not drawn) [Compound 13, 9-chloro-1-cyclopropyl-8-(3-methoxypropoxy) -5-(oxetan-3-yl)-2-oxo-5H-chromeno[4,3-b] pyridine-3-carboxylic acid]	0.001 to 1
COCCCOc1cc2c(cc1Cl)-c1c(cc(C(=O)O)c(=O)n1C1CC1)C(C)(C)O2 [Compound 14, 9-chloro-1-cyclopropyl-8-(3-methoxypropoxy) -5,5-dimethyl-2-oxo-chromeno [4,3-b]pyridine-3-carboxylic acid]	1 to 20
CCC1Oc2cc(OC)c(OC)cc2-c2c1cc(C(=O)O)c(=O)n2C1CC1 (stereo not drawn) [Compound 15, 1-cyclopropyl-5-ethyl-8,9-dimethoxy-2-oxo-5H-chromeno[4,3-b]pyridine-3-carboxylic acid]	20 to 100
COc1cc2c(cc1OC)-c1c(cc(C(=O)O)c(=O)n1C1CC1)C(CO)O2 (stereo not drawn) [Compound 18, 1-cyclopropyl-5-(hydroxymethyl)-8,9-dimethoxy-2-oxo-5H-chromeno[4,3-b]pyridine-3-carboxylic acid]	20 to 100
[2H]C([2H])([2H])Oc1cc2c(cc1OC)-c1c(cc(C(=O)O)c(=O)n1C1CC1)C(C(C)C)O2 (stereo not drawn) [Compound 20, 1-cyclopropyl-5-isopropyl-9-methoxy-2-oxo-8-(trideuteriomethoxy)-5H-chromeno[4,3-b]pyridine-3-carboxylic acid]	1 to 20
COc1cc2c(cc1Cl)-c1c(cc(C(=O)O)c(=O)n1C1CC1)C(C1COC1)O2 (stereo not drawn) [Compound 21, 9-chloro-1-cyclopropyl-8-methoxy-5-(oxetan-3-yl)-2-oxo-5H-chromeno[4,3-b]pyridine-3-carboxylic acid]	1 to 20
COCCCOc1cc2c(cc1Cl)-c1c(cc(C(=O)O)c(=O)n1C1CC1)C(C1(C#N)CC1)O2 (stereo not drawn) [Compound 22, 9-chloro-5-(1-cyanocyclopropyl)-1-cyclopropyl-8-(3-methoxypropoxy) -2-oxo-5H-chromeno[4,3-b]pyridine-3-carboxylic acid]	0.001 to 1
COCCCOc1cc2c(cc1Cl)-c1c(cc(C(=O)O)c(=O)n1C1CC(F)(F)C1)C(C(C)C)O2 (stereo not drawn) [Compound 23, 9-chloro-1-(3,3-difluorocyclobuty 1)-5-isopropyl-8-(3-methoxypropoxy) -2-oxo-5H-chromeno[4,3-b]pyridine-3-carboxylic acid]	1 to 20
COCCCOc1cc2c(cc1C#N)-c1c(cc(C(=O)O)c(=O)n1C1CC1)C(C(C)C)O2 (stereo not drawn) [Compound 24, 9-cyano-1-cyclopropyl-5-isopropyl-8-(3-methoxypropoxy) -2-oxo-5H-chromeno[4,3-b]pyridine-3-carboxylic acid]	0.001 to 1
COCCOc1cc2c(cc1Cl)-c1c(cc(C(=O)O)c(=O)n1C1CC1)C(C1(C)COC1)O2 (stereo not drawn) [Compound 25, 9-chloro-1-cyclopropyl-8-(2-methoxyethoxy)-5-(3-methyloxetan-3-yl)-2-oxo-5H-chromeno [4,3-b]pyridine-3-carboxylic acid]	0.001 to 1
COCCCOc1cc2c(cc1F)-c1c(cc(C(=O)O)c(=O)n1C1CCC1)C(C1(C)COC1)O2 (stereo not drawn) [Compound 26, 1-cyclobutyl-9-fluoro-8-(3-methoxypropoxy) -5-(3-methyloxetan-3-yl)-2-oxo-5H-chromeno[4,3-b]pyridine-3-carboxylic acid]	0.001 to 1
[2H]C1([2H])C(n2c3c(cc(C(=O)O)c2=O)C(C2(C)COC2)Oc2cc(OCCCOC)c(F)cc2-3)C1([2H])[2H] (stereo not drawn) [Compound 27, 9-fluoro-8-(3-methoxypropoxy) -5-(3-methyloxetan-3-yl)-2-oxo-1-(2,2,3,3-tetradeuteriocyclopropyl)-5H-chromeno[4,3-b]pyridine-3-carboxylic acid]	0.001 to 1
COc1cc2c(cc1OCC1(C)COC1)OC(C(C)C)c1cc(C(=O)O)c(=O)n(C3CC3)c1-2 (stereo not drawn) [Compound 28, 1-cyclopropyl-5-isopropyl-9-methoxy-8-[(3-methyloxetan-3-yl)methoxy]-2-oxo-5H-chromeno[4,3-b]pyridine-3-carboxylic acid]	1 to 20
COc1cc2c(cc1OCC1CN(C)C(=O)O1)OC(C(C)C)c1cc(C(=O)O)c(=O)n(C3CC3)c1-2 (stereo not drawn) [Compound 29, 1-cyclopropyl-5-isopropyl-9-methoxy-8-[(3-methyl-2-oxooxazolidin-5-yl)methoxy]-2-oxo-5H-chromeno[4,3-b]pyridine-3-carboxylic acid]	1 to 20
COc1cc2c(cc1OCCCC#N)OC(C(C)C)c1cc(C(=O)O)c(=O)n(C3CC3)c1-2 (stereo not drawn) [Compound 30, 8-(3-cyanopropoxy)-1-cyclopropyl-5-isopropyl-9-methoxy-2-oxo-5H-chromeno[4,3-b]pyridine-3-carboxylic acid]	1 to 20
COCCOc1cc2c(cc1OC)-c1c(cc(C(=O)O)c(=O)n1C1CC1)C(C(C)C)O2 (stereo not drawn) [Compound 31, 1-cyclopropyl-5-isopropyl-9-methoxy-8-(2-methoxyethoxy)-2-oxo-5H-chromeno[4,3-b]pyridine-3-carboxylic acid]	1 to 20
COc1cc2c(cc1OCC1CN(S(C)(=O)=O)C1)OC(C(C)C)c1cc(C(=O)O)c(=O)n(C3CC3)c1-2 (stereo not drawn) [Compound 32, 1-cyclopropyl-5-isopropyl-9-methoxy-8-[(1-methylsulfonylazetidin-3-yl)methoxy]-2-oxo-5H-chromeno[4,3-b]pyridine-3-carboxylic acid]	1 to 20
